Data as given in patent US11607383B2, “Conductive polymer microneedle arrays for electronically-controlled drug release” (University of Washington, priority 2019, dated 2023).

Key:
[1] = test system: activated BV2 murine microglia; assay: In vitro neuroinflammation assay (NO by Griess, cytokines by Luminex); assay type: cell-based; settings: for NO release normalized to viable cells: DC experiment
Experimental: Bioactivity of electrically released drug was tested in an in vitro neuroinflammation model, in which drugs were released into wells of activated BV2 murine microglia. Healthy BV2 cells were seeded in 12-well plates at a density of 100,000 cells/well, in 1.6 mL of Dulbecco's modified eagle media (DMEM, Gibco) with 4.5 g/L D-glucose, 584 mg/L L-glutamine, and 110 mg/L sodium pyruvate (Invitrogen). The DMEM was supplemented with 5% fetal bovine serum (Invitrogen) and 2% anti-mycotic/anti-biotic (Invitrogen). Following seeding, the cells were incubated at 37° C. overnight to allow for settling and adhesion. Cells in activated treatment groups were activated by the replacement of media with fresh DMEM containing 0.005% interferon gamma (Ifn-γ, Invitrogen) and 1% lipopolysaccharide (LPS, ThermoFisher). Unactivated controls received normal fresh DMEM. Cells were then incubated for 1 hour before application of treatment in groups of n=6, in order to simulate realistic conditions in which there is a duration between traumatic SCI occurrence and access to treatment.
Treatment was applied transdurally from microneedles into the cell media though the transdural insert model as previously described in the In Vitro Transdural Release section. Diagrams of experimental conditions can be found in FIGS. 5A-5G. Microneedles were similarly applied manually, then underwent a potentiostatic or cyclic electrical stimulation. Direct current potential was applied for only 2 minutes to minimize electrical imbalance applied to the cells, while delivering sufficient drug to achieve therapeutic effect. Cyclic voltammetry was applied for 15 cycles, equating to 10 minutes. Epidural drug solution controls were similarly applied to the neuroinflammation model by pipetting over the transdural insert. In addition, a subdural solution control was introduced to the neuroinflammation studies in which the Dexa solution is applied directly to the cell media, bypassing the transdural insert.
Following 3 days of incubation, cell media was assayed for markers of inflammation. Free radical nitric oxide (NO) was quantified using a Griess reagent kit (Invitrogen) that detects NO reduced to nitrites in cell medias. Colorimetric NO quantification was performed following the protocols provided in the Griess reagent kit. Pro-inflammatory cytokines were quantified using a Luminex Magpix Multiplexing assay (Millipore). Cytokines quantified include interleukin-1-beta (IL-1β), interleukin-6 (IL-6), and tumor necrosis factor alpha (TNF-α). Cells treated in the CV stimulated experiment were additionally quantified for the release of monocyte chemoattractant protein 1 (MCP-1). The Luminex multiplexing assays were performed following the protocol provided in the kit.

BV2 murine microglia = assay type: cell-based; settings: subdural solution, DC experiment, 3 days incubation
Experimental: Bioactivity of electrically released drug was tested in an in vitro neuroinflammation model, in which drugs were released into wells of activated BV2 murine microglia. Healthy BV2 cells were seeded in 12-well plates at a density of 100,000 cells/well, in 1.6 mL of Dulbecco's modified eagle media (DMEM, Gibco) with 4.5 g/L D-glucose, 584 mg/L L-glutamine, and 110 mg/L sodium pyruvate (Invitrogen). The DMEM was supplemented with 5% fetal bovine serum (Invitrogen) and 2% anti-mycotic/anti-biotic (Invitrogen). Following seeding, the cells were incubated at 37° C. overnight to allow for settling and adhesion. Cells in activated treatment groups were activated by the replacement of media with fresh DMEM containing 0.005% interferon gamma (Ifn-γ, Invitrogen) and 1% lipopolysaccharide (LPS, ThermoFisher). Unactivated controls received normal fresh DMEM. Cells were then incubated for 1 hour before application of treatment in groups of n=6, in order to simulate realistic conditions in which there is a duration between traumatic SCI occurrence and access to treatment. […]
Cell viability was measured using an MTS assay (CellTiter 96® AQueous One Solution Cell Proliferation Assay, Promega). […] The incubation was followed by detection of absorbance at 490 nm. The MTS absorbance in each group was normalized to the absorbance of the unactivated group.

[2] = epidural solution, CV experiment

## C[C@@H]1C[C@H]2[C@@H]3CCC4=CC(=O)C=C[C@]4(C)[C@@]3(F)[C@@H](O)C[C@]2(C)[C@@]1(O)C(=O)COP(=O)(O)O [Dexa solution, dexamethasone phosphate]
[1]; [2]
  MCP-1 release normalized for viable cells: did not see the same decrease
  NO release normalized for viable cells: did not see similar reductions in NO release
[1]; epidural solution
  NO release normalized to viable cells: did not demonstrate the same decrease
[1]; subdural solution
  NO release normalized to viable cells: significant decrease
BV2 murine microglia
  relative cell viability (MTS): slight decreases in viability, though not significant
